Here are results for seven compounds from patent US7652014B2, “Substituted 6-cyclohexylalkyl substituted 2-quinolinones and 2-quinoxalinones as poly(ADP-ribose) polymerase inhibitors” (Janssen Pharmaceutica, priority 2003, dated 2010).

The test system of data set [1] is infarct size caused by ischemia and reperfusion of the heart. Conditions: rabbits, cited from earlier work.
A further data set has as its system colitis. Conditions: rats, trinitrobenzene sulfonic acid induced colitis, distal colon; cited from earlier work.
The target in data set [2] is T1, PARP-1 enzyme (Homo sapiens, UniProt P09874).
T1 construct: made in house
T1 sequence (P09874 whole entry): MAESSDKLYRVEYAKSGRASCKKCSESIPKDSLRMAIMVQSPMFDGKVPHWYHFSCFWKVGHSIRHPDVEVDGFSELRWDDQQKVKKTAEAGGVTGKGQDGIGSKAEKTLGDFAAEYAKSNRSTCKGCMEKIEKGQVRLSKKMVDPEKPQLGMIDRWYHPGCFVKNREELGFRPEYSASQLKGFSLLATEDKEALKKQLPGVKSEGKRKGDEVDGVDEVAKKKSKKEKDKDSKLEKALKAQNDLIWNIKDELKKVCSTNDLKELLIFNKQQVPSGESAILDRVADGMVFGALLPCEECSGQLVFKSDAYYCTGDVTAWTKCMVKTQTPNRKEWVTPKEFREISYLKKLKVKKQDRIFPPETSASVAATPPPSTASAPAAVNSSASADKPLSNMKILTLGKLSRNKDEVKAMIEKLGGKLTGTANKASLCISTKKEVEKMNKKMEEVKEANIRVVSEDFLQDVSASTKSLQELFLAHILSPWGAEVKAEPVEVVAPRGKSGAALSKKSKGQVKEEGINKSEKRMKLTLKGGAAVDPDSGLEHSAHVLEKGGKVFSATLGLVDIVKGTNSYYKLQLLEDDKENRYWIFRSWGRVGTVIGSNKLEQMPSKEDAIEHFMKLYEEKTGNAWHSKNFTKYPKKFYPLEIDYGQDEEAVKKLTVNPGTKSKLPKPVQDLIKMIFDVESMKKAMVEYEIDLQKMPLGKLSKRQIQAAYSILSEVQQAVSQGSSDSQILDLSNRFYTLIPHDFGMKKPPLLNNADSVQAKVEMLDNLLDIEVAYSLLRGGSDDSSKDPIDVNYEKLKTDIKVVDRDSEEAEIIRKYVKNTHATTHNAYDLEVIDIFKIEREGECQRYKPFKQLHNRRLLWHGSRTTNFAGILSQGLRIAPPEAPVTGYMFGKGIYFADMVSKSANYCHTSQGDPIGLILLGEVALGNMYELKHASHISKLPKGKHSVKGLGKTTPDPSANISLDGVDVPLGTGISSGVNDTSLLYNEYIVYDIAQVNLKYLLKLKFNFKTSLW
In words: In vitro filtration assay for PARP-1 inhibitory activity. Format: biochemical. Conditions: nicked DNA activated PARP-1, [32P]-NAD, histones; read-out: In vitro filtration assay pIC50 (converted). The method, then:
In Vitro Filtration Assay for PARP-1 Inhibitory Activity
Compounds of the present invention were tested in an in vitro filtration assay assessing PARP-1 activity (triggered in the presence of nicked DNA) by means of its histone poly (ADP-ribosyl)ation activity using [^32P]-NAD as ADP-ribosyl donor. The radioactive ribosylated histones were precipitated by trichloroacetic acid (TCA) in 96-well filterplates and the incorporated [^32P] measured using a scintillation counter A mixture of histones (stock solution: 5 mg/ml in H2O), NAD^+ (stock solution: 100 mM in H2O), and [^32P]-NAD^+ in incubation buffer (50 mM Tris/HCl, pH 8; 0.2 mM DTT; 4 mM MgCl2) was made. A mixture of the PARP-1 enzyme (5-10 μg/ml) and nicked DNA was also made. The nicked DNA was prepared as described in the in vitro SPA for PARP-1 inhibitory activity. Seventy-five μl of the PARP-1 enzyme/DNA mixture together with 1 μl of compound in DMSO and 25 μl of histones-NAD^+/[^32P]-NAD^+ mixture was added per well of a 96-well filterplate (0.45 μm, supplier Millipore). The final concentrations in the incubation mixture were 2 μg/ml for the histones, 0.1 mM for the NAD^+, 200 μM (0.5 μC) for the [^32P]-NAD^+ and 2 μg/ml for the nicked DNA. Plates were incubated for 15 min. at room temperature and the reaction was terminated by the addition of 10 μl ice cold 100% TCA followed by the addition of 10 μl ice-cold BSA solution (1% in H2O). The protein fraction was allowed to precipitate for 10 min. at 4° C. and plates were vacuum filtered. The plates were subsequently washed with, for each well, 1 ml of 10% ice cold TCA, 1 ml of 5% ice cold TCA and 1 ml of 5% TCA at room temperature. Finally 100 μl of scintillation solution (Microscint 40, Packard) was added to each well and the plates were transferred to a TopCountNXT™ (supplier: Packard) for scintillation counting and values were expressed as counts per minute (cpm). For each experiment, controls (containing PARP-1 enzyme and DMSO without compound), a blank incubation (containing DMSO but no PARP-1 enzyme or compound) and samples (containing PARP-1 enzyme and compound dissolved in DMSO) were run in parallel. All compounds tested were dissolved and eventually further diluted in DMSO. In first instance, compounds were tested at a concentration of 10^−5M. […] In each test, the blank value was subtracted from both the control and the sample values. The control sample represented maximal PARP-1 enzyme activity. For each sample, the amount of cpm was expressed as a percentage of the mean cpm value of the controls. When appropriate, IC50-values (concentration of the drug, needed to reduce the PARP-1 enzyme activity to 50% of the control) were computed using linear interpolation between the experimental points just above and below the 50% level. Herein the effects of test compounds are expressed as pIC50 (the negative log value of the IC50-value). As a reference compound, 4-amino-1,8-naphthalimide was included to validate the filtration assay.

Data set [3] addresses T1, PARP-1 enzyme. In words: In vitro Scintillation Proximity Assay (SPA) for PARP-1 inhibitory activity. Format: biochemical. Conditions: nicked DNA activated PARP-1, [3H]-NAD+, biotinylated histones; read-out: In vitro SPA pIC50 (converted). The method, then:
Pharmacological Example In Vitro Scintillation Proximity Assay (SPA) for PARP-1 Inhibitory Activity
Compounds of the present invention were tested in an in vitro assay based on SPA technology (proprietary to Amersham Pharmacia Biotech).
In principle, the assay relies upon the well established SPA technology for the detection of poly(ADP-ribosyl)ation of biotinylated target proteins, i.e histones. This ribosylation is induced using nicked DNA activated PARP-1 enzyme and [^3H]-nicotinamide adenine dinucleotide ([^3H]-NAD^+) as ADP-ribosyl donor.
As inducer of PARP-1 enzyme activity, nicked DNA was prepared. For this, 25 mg of DNA (supplier: Sigma) was dissolved in 25 ml DNAse buffer (10 mM Tris-HCl, pH 7.4; 0.5 mg/ml Bovine Serum Albumine (BSA); 5 mM MgCl2.6H2O and 1 mM KCl) to which 50 μl DNAse solution (1 mg/ml in 0.15 M NaCl) was added. After an incubation of 90 min. at 37° C., the reaction was terminated by adding 1.45 g NaCl, followed by a further incubation at 58° C. for 15 min. The reaction mixture was cooled on ice and dialysed at 4° C. for respectively 1.5 and 2 hours against 1.5 l of 0.2 M KCl, and twice against 1.5 l of 0.01 M KCl for 1.5 and 2 h respectively. The mixture was aliquoted and stored at −20° C. Histones (1 mg/ml, type II-A, supplier: Sigma) were biotinylated using the biotinylation kit of Amersham and stored aliquoted at −20° C. A stock solution of 100 mg/ml SPA poly(vinyl toluene) (PVT) beads (supplier: Amersham) was made in PBS. A stock solution of [^3H]-NAD^+ was made by adding 120 μl of [^3H]-NAD^+ (0.1 mCi/ml, supplier: NEN) to 6 ml incubation buffer (50 mM Tris/HCl, pH 8; 0.2 mM DTT; 4 mM MgCl2). A solution of 4 mM NAD^+ (supplier: Roche) was made in incubation buffer (from a 100 mM stock solution in water stored at −20° C.). The PARP-1 enzyme was produced using art known techniques, i.e. cloning and expression of the protein starting from human liver cDNA. Information concerning the used protein sequence of the PARP-1 enzyme including literature references can be found in the Swiss-Prot database under primary accession number P09874. Biotinylated histones and PVT-SPA beads were mixed and pre-incubated for 30 min. at room temperature. PARP-1 enzyme (concentration was lot dependent) was mixed with the nicked DNA and the mixture was pre-incubated for 30 min. at 4° C. Equal parts of this histones/PVT-SPA beads solution and PARP-1 enzyme/DNA solution were mixed and 75 μl of this mixture together with 1 μl of compound in DMSO and 25 μl of [^3H]-NAD^+ was added per well into a 96-well microtiterplate. The final concentrations in the incubation mixture were 2 μg/ml for the biotinylated histones, 2 mg/ml for the PVT-SPA beads, 2 μg/ml for the nicked DNA and between 5-10 μg/ml for the PARP-1 enzyme. After incubation of the mixture for 15 min. at room temperature, the reaction was terminated by adding 100 μl of 4 mM NAD^+ in incubation buffer (final concentration 2 mM) and plates were mixed.
The beads were allowed to sediment for at least 15 min. and plates transferred to a TopCountNXT™ (Packard) for scintillation counting, values were expressed as counts per minute (cpm). For each experiment, controls (containing PARP-1 enzyme and DMSO without compound), a blank incubation (containing DMSO but no PARP-1 enzyme or compound) and samples (containing PARP-1 enzyme and compound dissolved in DMSO) were run in parallel. All compounds tested were dissolved and eventually further diluted in DMSO. […] In each test, the blank value was subtracted from both the control and the sample values. The control sample represented maximal PARP-1 enzyme activity. For each sample, the amount of cpm was expressed as a percentage of the mean cpm value of the controls. When appropriate, IC50-values (concentration of the drug, needed to reduce the PARP-1 enzyme activity to 50% of the control) were computed using linear interpolation between the experimental points just above and below the 50% level. […]

On to `Oc1cccc2c(O)nccc12` [1,5-dihydroxyisoquinoline], for which, in data set [1] (single injection 1 mg/kg), the “reduction in infarct size” value was 38-48%.
Turning to `NC(=O)c1cccc(N)c1` [3-amino-benzamide], the “effect on inflammatory response in colitis” value in the data set with colitis is reported as “reduced the inflammatory response”. The “reduction in infarct size in the heart” value in data set [1] (single injection 10 mg/kg, one minute before occlusion or one minute before reperfusion) is given as 32-42%.
With `CCc1cc2cc(C(OCCN(C)C)C3CCCCC3)ccc2[nH]c1=O` (stereo not drawn) [Co. No. 8], the melting point (in general, the temperature, or range, at which the solid turns liquid) is 122 °C. In addition, at PARP-1 enzyme [2], the IC50 was 6.73 µM. For the same compound, the IC50 at PARP-1 enzyme [3] is 0.873 µM.
As for `CCc1cc2cc(C(C3CC=CCC3)N3CCC(O)CC3)ccc2[nH]c1=O` (stereo not drawn) [Co. No. 11], the melting point worked out at 196 °C. Moreover, at PARP-1 enzyme [2], the IC50 is 0.785 µM. Further, the IC50 at PARP-1 enzyme [3] was 0.184 µM.
For `CCc1cc2cc(C(C3CCCCC3)N3CCC(O)(c4cncn4C)CC3)ccc2[nH]c1=O` (stereo not drawn) [Co. No. 6], in that order: 194 °C, 1.35 µM and 0.508 µM.
On to `CCc1cc2cc(C(CCN3CCN(C)CC3)C3CCCCC3)ccc2[nH]c1=O` (stereo not drawn) [Co. No. 5], for which the melting point was determined as 181 °C. Also, the IC50 at PARP-1 enzyme [2] is 5.06 µM. Further, the IC50 at PARP-1 enzyme [3] was 0.507 µM.
`CCc1cc2cc([C@@H](OCCN(C)C)C3CCCCC3)ccc2[nH]c1=O` [Co. No. 9]: the melting point stood at 115 °C. Further, at PARP-1 enzyme [2], the IC50 is 4.38 µM. The IC50 at PARP-1 enzyme [3] is 0.614 µM.
